Results as given in patent US20080234130A1, “Compositions providing tolerance to multiple herbicides and methods of use thereof” (priority 2005, published 2008).

Key:
GAT-HRA maize = assay: Postemergence herbicide spray at V2, injury evaluated 10-14 days after application
Method: GAT-HRA maize plants were evaluated for tolerance to glyphosate and other herbicides. One protocol used in this evaluation was as follows. At the V2 stage (Ritchie and Hanway (1982), “How a corn plant develops” Spec. Rep. 48. (Coop. Ext. Ser., Iowa State Univ., Ames, Iowa)), plant heights were measured and herbicides were applied by spray application. Ten to fourteen days after the spray application, the transgenic plants were evaluated for injury symptoms and measured for plant height again in order to determine plant growth rates.
Plants were then evaluated at various times after treatment, such as 10 or 14 days after treatment. […] Leaf samples were taken from GAT-HRA plants and used in quantitative PCR analysis and other analyses to determine the number and arrangement of copies of the GAT and HRA polynucleotides that had been integrated into the plant genome.
Other protocols for evaluation included treatment with imidazolinone herbicides, such as the commercial herbicide Lightning® (a combination of imazapyr and imazethapyr), which was applied to GAT-HRA maize at the V2 leaf stage at four times the field label rate (250 g ai/ha). […] Another protocol for evaluation included treatment with imidazolinone herbicides as well as sulfonylurea and glyphosate herbicides. In these tests, GAT-HRA maize was treated with various combinations of Lightning® (imazapyr and imazethapyr), Basis® (rimsulfuron and thifensulfuron-methyl) and WeatherMAX® (glyphosate potassium salt). These herbicides were applied at the V2 stage as follows: Lightning® at twice the field label rate (1.8 oz ai/ac (133 ml ai/ha)), Basis® at twice the field label rate (0.5 oz ai/ac (36.9 ml ai/ha)) and WeatherMax® at four times the field label rate (43 oz ai/ac). Fourteen days after the treatment application, the plants were evaluated. […] “Field label rate” refers to the application rate specified on the product label. Where the application rate for a particular situation is a range of rates, as used herein, the term “field label rate” indicates the upper end of that range. […]

control maize = assay: as above; format: in vivo; settings: tribenuron, chlorimuron, imazapyr 200 g ai/ha, metsulfuron-methyl 0.5 oz ai/ac or 35 g ai/ha, 10-14 days after spray
[1] = test system: parent elite stiff stalk inbred corn; assay: Preemergence effect of ALS herbicides (fresh weight, visual injury); settings: 200 g/ha, mean of four replications; for % Visual Injury Patent elite stiff stalk inbred: 4 weeks after treatment, 0% no injury, 100% plant death
[2] = test system: heterozygous GAT-HRA corn; assay: as above; settings: 200 g/ha, mean of four replications; for % Visual Injury Heterozygous GAT-HRA: 4 weeks after treatment, 0% no injury, 100% plant death
[3] = test system: parent elite stiff stalk inbred corn; assay: Postemergence effect of ALS herbicides, glyphosate and glufosinate (fresh weight, visual injury); settings: 200 g/ha (glyphosate 3472 g ae/ha, glufosinate ammonium 1870 g/ha), mean of four replications; for % Visual Injury Parent elite stiff stalk inbred: 2 weeks after treatment, 0% no injury, 100% plant death
[4] = test system: heterozygous GAT-HRA corn; assay: as above; settings: 200 g/ha (glyphosate 3472 g ae/ha, glufosinate ammonium 1870 g/ha), mean of four replications; for % Visual Injury Heterozygous GAT-HRA: 2 weeks after treatment, 0% no injury, 100% plant death
[5] = test system: GAT-HRA transgenic cotton plants; assay: Greenhouse over the top herbicide spray of cotton; format: in vivo, Gossypium hirsutum; settings: rimsulfuron 16 g active ingredient/hectare over the top after glyphosate 1.5 lb ae/acre; 14 days after rimsulfuron, 28 days after glyphosate
Description: (§1) Transformed cotton plants were rooted and then transferred to soil for further growth. Plants were then subjected to herbicide spray treatments in a greenhouse. […] Untransformed Coker 312 control plants were dead 2 weeks after glyphosate application. […] Plants transformed with both GAT and HRA were further subjected to an “over the top” application of the sulfonylurea herbicide rimsulfuron at a rate of 16 g active ingredient/hectare. […] In further experiments 32 g ai/ha rimsulfuron were applied to the cotton.

[6] = test system: untransformed Coker 312 cotton; assay: Greenhouse over the top herbicide spray of cotton; format: in vivo, Gossypium hirsutum; settings: rimsulfuron 16 g active ingredient/hectare, even in the absence of glyphosate
Description: as §1

[7] = test system: non-transgenic control soybeans; assay: Postemergence greenhouse spray of soybeans, visual injury (Table 11); settings: tribenuron-methyl 35 g/ha
Method: Young regenerated transgenic plants were sprayed with 1× glyphosate (1× rate of glyphosate is 1120 g/ha of glyphosate isopropylamine) to cull segregants. Four replications were performed for each treatment. Plants were then treated with various herbicides, including glyphosate and ALS-inhibitor herbicides.
Six soybean seeds from each variety to be assayed were planted 1 cm deep in 5.5 (13.97 cm) inch square plastic container of a synthetic growth medium. […] When possible, containers were thinned to two uniform plants. Non-transgenic lines were thinned to two uniform plants per container.
Results are expressed below in Table 11 as the mean of four replications.

[8] = test system: non-glyphosate resistant ryegrass (70-04); assay: Control of ryegrass by glyphosate, metsulfuron-methyl and two additives (Table 23); format: in vivo
Method: The example was conducted on non-glyphosate resistant ryegrass. As provided in Table 23, all treatments that included glyphosate [180 g a.i. L ha^−1 (0.5 L glyphosate (SCAT®))] plus metsulfuron-methyl (BRUSH-OFF®) (5 and 10 g ha^−1) gave 100% control of the ryegrass.
• Biotype: non-glyphosate resistant ryegrass (70-04) • Population profile: Rup 0.25 control (%) 6.25 • Rup 0.5 control (%) 81.25 • Rup 1.0 control (%) 93.75 • Growth Stage: 5-6 leaf stage • Conditions: hot and sunny • Volume rate: 200 L ha^−1

[9] = test system: non-glyphosate resistant Conyza (Welgevallen-paraquat resistant); assay: Control of hairy fleabane by glyphosate, metsulfuron-methyl and two additives (Table 24); format: in vivo, Conyza bonariensis
Method: This example included the same treatments as used in Example 11, except the treatments were carried out on a glyphosate sensitive biotype of Kleinskraalhans (Conyza bonariensis).
• Biotype: Non-glyphosate resistant Conyza (Welgevallen-paraquat resistant) • Growth Stage: 10-15 leaf stage • Conditions: Cool and sunny • Volume rate: 200 L ha^−1 • glyphosate (ROUNDUP): 360 g a.i. L^−1

[10] = Trial 2: metsulfuron-methyl (BRUSH-OFF) 5 g/ha
[11] = Trial 3: metsulfuron-methyl (BRUSH-OFF) 10 g/ha

| SMILES | damage from the treatment, control maize (control maize) | % Visual Injury Patent elite stiff stalk inbred [1] [%] | % Visual Injury Heterozygous GAT-HRA [2] [%] | % Visual Injury Parent elite stiff stalk inbred [3] [%] | % Visual Injury Heterozygous GAT-HRA [4] [%] | other results |
| --- | --- | --- | --- | --- | --- | --- |
| CC(C)C1(C)N=C(c2ncccc2C(=O)O)NC1=O (stereo not shown) [Imazapyr] | severely damaged or killed | 99 | 30 | 100 | 1 | damage from the treatment, GAT-HRA maize (GAT-HRA maize; in vivo): no significant damage |
| CCOC(=O)c1ccccc1S(=O)(=O)NC(=O)Nc1nc(Cl)cc(OC)n1 [Chlorimuron-ethyl, ethyl 2-[[[[(4-chloro-6-methoxy-2-pyrimidinyl)amino]carbonyl]amino]sulfonyl]-benzoate] | severely damaged or killed | 100 | 10 | 93 | 15 | damage from the treatment, GAT-HRA maize (GAT-HRA maize; postemergence spray at V2, tribenuron (Express), chlorimuron (Classic), imazapyr (Arsenal) 200 g ai/ha, metsulfuron-methyl (Ally) 0.5 oz ai/ac or 35 g ai/ha, 10-14 days after spray): no significant damage; Fresh Weight (g) patent elite stiff stalk inbred ([1]; fresh shoots 4 weeks after treatment, untreated 36.7 g): 9.3 g; Fresh Weight (g) Heterozygous GAT-HRA ([2]; fresh shoots 4 weeks after treatment, untreated 47.0 g): 39.4 g; Fresh Weight (g) Parent elite stiff stalk inbred ([3]; applied two weeks after planting, fresh shoots 2 weeks after treatment, untreated 76.4 g): 10.1 g; Fresh Weight (g) Heterozygous GAT-HRA ([4]; applied two weeks after planting, fresh shoots 2 weeks after treatment, untreated 98.8 g): 95.5 g |
| CCS(=O)(=O)c1cccnc1S(=O)(=O)NC(=O)Nc1nc(OC)cc(OC)n1 [Rimsulfuron, N-[[(4,6-dimethoxy-2-pyrimidinyl)amino]carbonyl]-3-(ethylsulfonyl)-2-pyridinesulfonamide] | – | 74 | 0 | 91 | 10 | transgenic plants with no deleterious symptoms from the dual herbicide application [5]: approximately 35%; damage of untransformed Coker 312 plants [6]: severe damage |
| COC(=O)c1ccccc1S(=O)(=O)NC(=O)N(C)c1nc(C)nc(OC)n1 [Tribenuron-methyl, methyl 2-[[[[N-(4-methoxy-6-methyl-1,3,5-triazin-2-yl)-N-methylamino]carbonyl]-amino]sulfonyl]benzoate] | – | 66 | 25 | 100 | 8 | effect on non-transgenic control soybeans [7]: killed by the treatment |
| COC(=O)c1ccccc1S(=O)(=O)NC(=O)Nc1nc(C)nc(OC)n1 [Metsulfuron-methyl, methyl 2-[[[[(4-methoxy-6-methyl-1,3,5-triazin-2-yl)amino]carbonyl]amino]sulfonyl]benzoate] | severely damaged or killed | 100 | 0 | 100 | 14 | damage from the treatment, GAT-HRA maize (GAT-HRA maize; in vivo): no significant damage |
| COC(=O)c1sccc1S(=O)(=O)NC(=O)Nc1nc(C)nc(OC)n1 [Thifensulfuron-methyl, methyl 3-[[[[(4-methoxy-6-methyl-1,3,5-triazin-2-yl)amino]carbonyl]amino]sulfonyl]-2-thiophenecarboxylate] | – | 88 | 3 | 98 | 10 | – |
| COc1cc(OC)nc(NC(=O)NS(=O)(=O)c2cc(NC=O)ccc2C(=O)N(C)C)n1 [Foramsulfuron, 2-[[[[(4,6-dimethoxy-2-pyrimidinyl)amino]carbonyl]amino]sulfonyl]-4-(formylamino)-N,N-dimethylbenzamide] | – | 5 | 7 | 28 | 8 | – |
| COC(=O)c1ccccc1S(=O)(=O)NC(=O)Nc1nc(C)nc(OC)n1 [Metsulfuron-methyl (BRUSH-OFF ®)] | – | – | – | – | – | Control (%) [8, 10]: 0%; Control (%) [8, 11]: 0%; Control (%) [9, 10]: 100%; Control (%) [9, 11]: 100% |
| COc1nc(C)nc(NC(=O)NS(=O)(=O)c2ccccc2CCC(F)(F)F)n1 [Prosulfuron, N-[[(4-methoxy-6-methyl-1,3,5-triazin-2-yl)amino]carbonyl]-2-(3,3,3-trifluoropropyl)benzenesulfonamide] | – | 68 | 9 | 25 | 29 | – |
